In the NIST ThermoML archive (doi:10.1021/je700015t) one finds mass density data, which are given here for seven compounds.

A word on the mass density: it is mass per unit of volume.

± gives the expanded uncertainty stated by the source.

For the data set the following is noted: 101.33 kPa, Liquid.

Take `CCCCCBr` [1-bromopentane]: the mass density reads like this: (253.15 K) 1260.3 ± 2 kg/m3; (263.15 K) 1249.9 ± 1.9 kg/m3; (273.15 K) 1239.6 ± 1.8 kg/m3; (293.15 K) 1214.9 ± 1.6 kg/m3; (298.15 K) 1208.5 ± 1.6 kg/m3; (323.15 K) 1177.1 ± 1.8 kg/m3. The mass density reads like this: (343.15 K) 1151 ± 1.9 kg/m3; (363.15 K) 1124.7 ± 2 kg/m3; (383.15 K) 1097.4 ± 2.2 kg/m3; (393.15 K) 1083.4 ± 2.2 kg/m3.

With `CCCCCCCBr` [1-bromoheptane], the mass density is, setting by setting: (243.15 K) 1191 ± 1.8 kg/m3; (263.15 K) 1169.6 ± 1.6 kg/m3; (273.15 K) 1159.2 ± 1.4 kg/m3; (283.15 K) 1148.7 ± 1.3 kg/m3; (298.15 K) 1132.9 ± 1.3 kg/m3; (323.15 K) 1106 ± 1.5 kg/m3. For the same compound, the mass density by setting is: (343.15 K) 1084.5 ± 1.6 kg/m3; (393.15 K) 1026.6 ± 2 kg/m3.

In the case of `CCCCCCBr` [1-bromohexane], the mass density by setting is: (253.15 K) 1218 ± 1.7 kg/m3; (273.15 K) 1195.3 ± 1.5 kg/m3; (283.15 K) 1183.8 ± 1.3 kg/m3; (298.15 K) 1166.8 ± 1.3 kg/m3; (323.15 K) 1137.3 ± 1.5 kg/m3; (343.15 K) 1113.7 ± 1.6 kg/m3. Further, the mass density by setting is: (363.15 K) 1090.8 ± 1.8 kg/m3; (383.15 K) 1066.1 ± 1.9 kg/m3; (403.15 K) 1040.9 ± 2.1 kg/m3.

As for `CCCCBr` [1-bromobutane], the mass density runs as follows: (253.15 K) 1326.5 ± 1.7 kg/m3; (263.15 K) 1313.8 ± 1.6 kg/m3; (273.15 K) 1300.5 ± 1.5 kg/m3; (283.15 K) 1286.4 ± 1.4 kg/m3; (298.15 K) 1265.7 ± 1.3 kg/m3; (323.15 K) 1229.5 ± 1.5 kg/m3.

In the case of `CCCCCCCCCCCCBr` [1-bromododecane], the mass density stood at 1056.5 ± 1.3 kg/m3 (273.15 K); 1048.5 ± 1.2 kg/m3 (283.15 K); 1039.8 ± 1.1 kg/m3 (293.15 K); 1035.6 ± 1.2 kg/m3 (298.15 K); 1014 ± 1.4 kg/m3 (323.15 K); 996.2 ± 1.5 kg/m3 (343.15 K). The mass density (363.15 K) came to 979 ± 1.7 kg/m3, the mass density (393.15 K) turned out to be 952.4 ± 1.9 kg/m3 and the mass density (423.15 K) is listed as 923.7 ± 2.2 kg/m3.

On to `CCCBr` [1-bromopropane], for which the mass density reads like this: (243.15 K) 1431.1 ± 1.9 kg/m3; (253.15 K) 1415.4 ± 1.8 kg/m3; (263.15 K) 1400.3 ± 1.7 kg/m3; (273.15 K) 1385.3 ± 1.6 kg/m3; (283.15 K) 1369.4 ± 1.5 kg/m3; (298.15 K) 1344.5 ± 1.4 kg/m3.

On to `CCCCCCCCBr` [1-bromooctane], for which the mass density (253.15 K) was found to be 1151.1 ± 1.7 kg/m3; the mass density (263.15 K) came out at 1140.9 ± 1.5 kg/m3; the mass density (273.15 K) is 1131.2 ± 1.4 kg/m3; the mass density (283.15 K) turned out to be 1121.2 ± 1.3 kg/m3; the mass density (293.15 K) amounted to 1111 ± 1.2 kg/m3; the mass density (298.15 K) came to 1106 ± 1.3 kg/m3. For the same compound, the mass density was 1080.6 ± 1.5 kg/m3 (323.15 K), 1060.5 ± 1.6 kg/m3 (343.15 K), 1039.5 ± 1.8 kg/m3 (363.15 K) and 1008.4 ± 2 kg/m3 (393.15 K).
